# Measurements from patent US20090192191A1, “Substituted hydroxamic acid derivatives as tnf inhibitors” (priority 2004, published 2009).
# Tested on: TNF-α
# Assay: In vitro screening for TNF-α inhibitory activity using rat whole blood assay
# Assay type: cell-based
# Settings: 10 μM test substance, LPS 1 μg/mL, 5 h at 37° C, plasma TNF-α by ELISA
# Experimental: In Vitro Screening for TNF-α Inhibitory Activity Using Rat Whole Blood Assay:
# Rats were deeply anaesthetized with anesthetic ether and blood (6-8 mL) was collected through retro-orbital plexus in a tube containing heparin (100 IU/mL). Five hundred microlitre blood sample was incubated with different concentrations of the test substances for 15 min at 37° C. LPS (1 μg/mL, final concentration) was subsequently added and the mixture was further incubated for 5 h at 37° C. The reaction was terminated by placing the samples over ice for 15 min. The samples were then centrifuged at 1000 g for 15 min at 4° C. The plasma was separated and stored in deep freezer until the assay. TNF-α levels were estimated in the treated plasma samples by ELISA method using commercially available kit (R&D System, Inc., USA). The inhibition of the TNF-α[…] production may be taken as an indicator of inhibition of TACE activity.
row,Compound,% of TNF-α inhibition at 10 μM dose [%]
1,2-3-Amino-3-{4-[2-(4-methoxy)phenyl)-quinolin-4-ylmethoxy]-phenyl}-2-oxo-pyrrolidin-1-yl)-4-methyl-pentanoic acid hydroxyamide [Compound 14],85
2,2-{3-Amino-2-oxo-3-[4-2-p-tolyl-quinolin-4-ylmethoxy)-phenyl]-pyrrolidin-1-yl}-N-hydroxy-propionamide [Compound 9],82
3,2-{3-Amino-2-oxo-3-[4-(2-p-tolylsuinolin-4-ylmethoxy)-phenyl]-pyrrolidin-1-yl}-4-methyl-pentanoic acid hydroxyamide [Compound 8],84
4,CC(C)CC(C(=O)NO)N1CCC(N)(c2ccc(OCc3cc(COC(C)C)nc4ccccc34)cc2)C1=O (centres unmarked) [Compound 5],94
5,COc1cccc(-c2cc(COc3ccc(C4(N)CCN(C(CC(C)C)C(=O)NO)C4=O)cc3)c3ccccc3n2)c1 (centres unmarked) [Compound 27],79

# Same assay, conditions: 10 μM test substance, LPS 1 μg/mL, 5 h at 37° C, plasma TNF-α by ELISA, read-out: % of TNF-α inhibition at 10 μM dose
row,Compound,inhibition at 10 µM [%]
1,"COc1ccc(-c2cc(COc3ccc([C@]4(N)CCN([C@H](C)C(=O)NO)C4=O)cc3)c3ccccc3n2)cc1 (stereo in doubt) [Compound 15, 2-(3-Amino-3-{4-[2-(4-methoxy-phenyl}-quinolin-4-ylmethoxy]-phenyl)-2-oxo-pyrrolidin-1-yl)-N-hydroxy-propionamide]",84
2,COCc1cc(COc2ccc([C@]3(N)CCN([C@H](CC(C)C)C(=O)NO)C3=O)cc2)c2ccccc2n1 [Compound 2],92
3,"COCCc1cc(COc2ccc(C3(N)CCN(C(CC(C)C)C(=O)NO)C3=O)cc2)c2ccccc2n1 (centres unmarked) [Compound 7, 2-(3-Amino-3-{4-[2-(2-methoxy-ethyl)quinolin-4-ylmethoxy]-phenyl}-2-oxo-pyrrolidin-1-yl)-4-methyl-pentanoic acid hydroxyamide]",85
